According to patent US9205139B2, “Immunomodulatory methods and systems for treatment and/or prevention of aneurysms” (priority 2010, dated 2015):
Peptide text beside a SMILES is read from it.

Columns and labels:
atherosclerosis = conditions: WO 02/080954, Table B; cited from earlier work
[1] = Circulating cholesterol and body weight of immunized mice; assay type: in vivo; conditions: n = 10; mean±Std
Source text: Immunization protocols Male apoE (−/−) mice (Jackson Laboratories) were housed in an animal facility accredited by the American Association of Accreditation of Laboratory Animal Care and kept on a 12-hour day/night cycle with unrestricted access to water and food. The Institutional Animal Care and Use Committee of Cedars-Sinai Medical Center approved the experimental protocols. […] Mice, maintained on normal chow diet, received subcutaneous primary immunization in the dorsal area between scapulas at 6-7 weeks of age, followed by a booster at 9 and 12 weeks of age. One week after last booster, diet was switched to high cholesterol chow (TD 88137, Harlan-Teklad) and continued until euthanasia at the age of 25 weeks. Separate groups of mice receiving PBS or cBSA/alum at the same immunization time-points served as control. Some mice were sacrificed at 8 or 13 weeks of age to assess immune response against p210.
The vaccine preparation consisted of the p210 peptide (Euro-Diagnostica AB, Sweden) conjugated to cationic bovine serum albumin (cBSA) as carrier using a method described previously^3;4. Alum was used as adjuvant and mixed with peptide/cBSA conjugated with 1:1 ratio in volume. Peptide conjugation was performed on the day of immunization and freshly mixed with alum just prior to each immunization. […]

Compound | percentage reduction of atherosclerosis (atherosclerosis) [%] | Body weight [1]
HTFLI YITEL LKKLQ STTVM (HTFLIYITELLKKLQSTTVM) [p301] | 55.2 | 
CC(C)C[C@H](NC(=O)[C@H](CC(=O)O)NC(=O)[C@H](Cc1ccccc1)NC(=O)[C@H](CO)NC(=O)[C@H](CCC(N)=O)NC(=O)[C@H](CCCCN)NC(=O)[C@@H](NC(=O)[C@@H](NC(=O)[C@@H](N)CCCCN)[C@@H](C)O)[C@@H](C)O)C(=O)N[C@@H](CO)C(=O)N[C@H](C(=O)N[C@@H](CCCCN)C(=O)N[C@@H](C)C(=O)N[C@@H](CCC(N)=O)C(=O)N[C@@H](Cc1ccc(O)cc1)C(=O)N[C@@H](CCCCN)C(=O)N[C@@H](CCCCN)C(=O)N[C@@H](CC(N)=O)C(=O)N[C@@H](CCCCN)C(=O)N[C@@H](Cc1c[nH]cn1)C(=O)O)C(C)C [p210, KTTKQ SFDLS VKAQY KKNKH] (H-KTTKQSFDLSVKAQYKKNKH-OH) |  | without affecting
EEEML ENVSL VCPKD ATRFK [p1] | 31 | 
IEIGL EGKGF EPTLE ALFGK (IEIGLEGKGFEPTLEALFGK) [p45] | 47.4 | 
